Source: patent US20140080810A1 (Exelixis, Inc., priority 2010, published 2014)
pIC50: −log10 of the molar value.

These molecules were tested against mTOR/GbL/Raptor (mTORC1) (Homo sapiens, UniProt P42345) (assay: mTOR/GbL/Raptor (mTORC1) ELISA Assay). Conditions: 4E-BP1 phosphorylation, 0.2 nM mTORC1, 10 μM ATP; last bin: >= 2,000 nM or not active under the conditions the assay was run; read-out: IC50 in this assay (mTORC1).
Assay type: biochemical
Method: The measurement of mTORC1 enzyme activity was performed in an ELISA assay format following the phosphorylation of 4E-BP1 protein. All experiments were performed in the 384-well format. Generally, 0.5 μL DMSO containing varying concentrations of the test Compound was mixed with 15 μL enzyme solution. Kinase reactions were initiated with the addition of 15 μL of substrates-containing solution. The assay conditions were as follows; 0.2 nM mTORC1, 10 μM ATP and 50 nM NHis-tagged 4E-BPI in 20 mM Hepes, pH 7.2, 1 mM DTT, 50 mM NaCl, 10 mM MnCl2, 0.02 mg/mL BSA, 0.01% CHAPS, 50 mM β-glycerophosphate. Following an incubation of 120 minutes at ambient temperature, 20 μL of the reaction volume was transferred to a Ni-Chelate-coated 384-well plate. The binding step of the 4E-BP1 protein proceeded for 60 minutes, followed by washing 4 times each with 50 μL of Tris-buffered saline solution (TBS). Anti-phospho-4E-BP1 rabbit-IgG (20 μL, 1:5000) in 5% BSA-TBST (0.2% Tween-20 in TBS) was added and further incubated for 60 minutes. Incubation with a secondary HRP-tagged anti-IgG was similarly performed after washing off the primary antibody (4 washes of 50 μL). Following the final wash step with TBST, 20 μL of SuperSignal ELISA Femto (Pierce Biotechnology) was added and the luminescence measured using an EnVision plate reader.

Question: How did the pIC50 turn out when `CC1(C)CCc2ncnc(N3CCOc4ccc(-c5cnc(NCc6ccccc6)c(NS(C)(=O)=O)c5)cc4C3)c2C1` [Compound 630, N-{5-[4-(6,6-dimethyl-5,6,7,8-tetrahydroquinazolin-4-yl)-2,3,4,5-tetrahydro-1,4-benzoxazepin-7-yl]-2-[(phethylmethyl)amino]pyridin-3-yl}methanesulfonamide] was run?
Answer: ≤ 5.70

Question: How did the pIC50 turn out when `CCNc1nc2ccc(-c3ccc4c(c3)CN(c3nc(C)nc5cc(O)ccc35)CCO4)cc2[nH]1` [Compound 285, 4-{7-[2-(ethylamino)-1H-benzimidazol-6-yl]-2,3-dihydro-1,4-benzoxazepin-4(5H)-yl}-2-methylquinazolin-7-ol] was run?
Answer: 6.60 to 7.30

Question: `Cc1nc2ccc(-c3ccc4c(c3)CN(c3ncnc5ccc(Br)cc35)CCO4)cc2[nH]1` [Compound 12, 4-(6-bromoquinazolin-4-yl)-7-(2-methyl-1H-benzimidazol-6-yl)-2,3,4,5-tetrahydro-1,4-benzoxazepine] was tested. Which pIC50 did it give?
Answer: ≥ 8.00

Question: `COC(=O)Nc1nc2ccc(-c3ccc4c(c3)CN(c3ncnc5c3CC(C)(C)CC5)CCO4)cc2[nH]1` [Compound 235, methyl {6-[4-(6,6-dimethyl-5,6,7,8-tetrahydroquinazolin-4-yl)-2,3,4,5-tetrahydro-1,4-benzoxazepin-7-yl]-1H-benzimidazol-2-yl}carbamate] was tested. Which pIC50 did it give?
Answer: 6.60 to 7.30

Question: With `Cc1nc2ccc(-c3ccc4c(c3)CN(c3ncnc5c(Br)cccc35)CCO4)cc2[nH]1` [Compound 25, 4-(8-bromoquinazolin-4-yl)-7-(2-methyl-1H-benzimidazol-6-yl)-2,3,4,5-tetrahydro-1,4-benzoxazepine] as the molecule, how does the pIC50 read?
Answer: 6.60 to 7.30

Question: How did the pIC50 turn out when `Cn1ccc2cc(-c3ccc4c(c3)CN(c3ccnc5ccccc35)CCO4)ccc21` [Compound 133, 7-(1-methyl-1H-indol-5-yl)-4-quinolin-4-yl-2,3,4,5-tetrahydro-1,4-benzoxazepine] was run?
Answer: 5.70 to 6.00

Question: With `Cc1nc2cc(-c3ccc4c(c3)CN(c3nc(N)nc(C)c3Cc3ccc(F)cc3)CCO4)ccc2[nH]1` [Compound 660, 5-[(4-fluorophenyl)methyl]-4-methyl-6-[7-(2-methyl-1H-benzimidazol-5-yl)-2,3-dihydro-1,4-benzoxazepin-4(5H)-yl]pyrimidin-2-amine] as the molecule, how does the pIC50 read?
Answer: ≥ 8.00

Question: `CC1(C)CCc2ncnc(N3CCOc4ccc(-c5cnc(N)c(S(=O)(=O)N6CCC(N)C6)c5)cc4C3)c2C1` (stereo not drawn) [Compound 445, 3-[(3-aminopyrrolidin-1-yl)sulfonyl]-5-[4-(6,6-dimethyl-5,6,7,8-tetrahydroquinazolin-4-yl)-2,3,4,5-tetrahydro-1,4-benzoxazepin-7-yl]pyridin-2-amine] was tested. Which pIC50 did it give?
Answer: 7.30 to 8.00

Question: With `Cc1nc2ccc(-c3ccc4c(c3)CN(c3nc(C(C)(C)O)nc5c3CC(C)(C)CC5)CCO4)cc2[nH]1` [Compound 362, 2-{6,6-dimethyl-4-[7-(2-methyl-1H-benzimidazol-6-yl)-2,3-dihydro-1,4-benzoxazepin-4(5H)-yl]-5,6,7,8-tetrahydroquinazolin-2-yl}propan-2-ol] as the molecule, how does the pIC50 read?
Answer: 6.60 to 7.30

Question: `CC1(C)CCc2ncnc(N3CCOc4ccc(-c5cnc6c(c5)OCCN6)cc4C3)c2C1` [Compound 569, 7-(3,4-dihydro-2H-pyrido[3,2-b][1,4]oxazin-7-yl)-4-(6,6-dimethyl-5,6,7,8-tetrahydroquinazolin-4-yl)-2,3,4,5-tetrahydro-1,4-benzoxazepine] was tested. Which pIC50 did it give?
Answer: 6.60 to 7.30

Question: `Cc1nc2cc(-c3ccc4c(c3)CN(c3nc(CN(C)C)nc(C)c3C)CCO4)cnc2[nH]1` [Compound 335, 1-{4,5-dimethyl-6-[7-(2-methyl-3H-imidazo[4,5-b]pyridin-6-yl)-2,3-dihydro-1,4-benzoxazepin-4(5H)-yl]pyrimidin-2-yl}-N,N-dimethylmethanamine] was tested. Which pIC50 did it give?
Answer: 5.70 to 6.00

Question: How did the pIC50 turn out when `CC1(C)CCc2ncnc(N3CCOc4ccc(-c5ccc6nc[nH]c6c5)cc4C3)c2C1` [Compound 219, 7-(1H-benzimidazol-6-yl)-4-(6,6-dimethyl-5,6,7,8-tetrahydroquinazolin-4-yl)-2,3,4,5-tetrahydro-1,4-benzoxazepine] was run?
Answer: ≥ 8.00
